From patent US4839387A, “Derivative of thiazolidine-4-carboxylic acid, its preparation and pharmaceutical compositions containing it” (Poli Industria Chimica S.P.A., priority 1987, dated 1989)
Non-standard residues stand in square brackets, D forms with d. Residues, ends and D or L forms follow the SMILES beside them. pGlu = O=C1CC[C@@H](C(=O)O)N1; Thz = O=C(O)[C@@H]1CSCN1

Columns and labels:
[1] = tested on: old rat; test: Neurocerebral performances in the old rat; type: in vivo; conditions: 10 mg/kg and even more at 50 mg/kg
[2] = tested on: Male Wistar rats; test: Paracetamol intoxication in the rat, test after repeated i.p. administration; type: in vivo; conditions: for Death rate %: repeated administration (daily for 8 days and on), 48 hours after paracetamol 5000 mg/kg per os; for % distribution of liver impairment degrees: degree 0 / % distribution of liver impairment degrees: degree 1 / % distribution of liver impairment degrees: degree 2 / % distribution of liver impairment degrees: degree 3: repeated administration; for % distribution of liver impairment degrees: degree 0: degree 0 = normal histologic examination; for % distribution of liver impairment degrees: degree 1: degree I = centrolobular necrosis less than 25% of the lobule; for % distribution of liver impairment degrees: degree 2: degree II = extended centrolobular necrosis; for % distribution of liver impairment degrees: degree 3: degree III = massive necrosis
Text: (§1) Male Wistar rats, mean weight of 150±10 g were used, which, after suitable housing, were subjected to the test:
The degree of liver impairment has been evaluated as: degree O: normal histologic examination […]
degree II: extended centrolobular necrosis, with lesions bridging adjacent centrolobular areas degree III: massive necrosis.
(§2) In order to evaluate the lesion degree, 6 different sections were taken from each organ.
(b) Test after repeated i.p. administration
The same treatment schedule as in (a) was used.
The animals of groups II-VII were treated daily for 8 days. At the 8th day, contemporaneously to the various considered pharmacological treatments, the animals of the 7 groups (fasting since 12 hours) were administered with paracetamol (5000 mg/kg per os).
After 48 hours from the paracetamol administration, the surviving animals were examined and the liver was subjected to the histopathologic examination.

[3] = tested on: Swiss male mice; test: Effects on the consequences of exposure to ionizing radiation; type: in vivo, mouse; conditions: for Death-rate % 10 gg: 10 days after 700 r of x rays; for Death-rate % 15 gg: 15 days after 700 r of x rays
Description: Swiss male mice weighing 30±5 g, divided in 7 groups of 20 animals each, were used according to the above reported schedule.
The pharmacological treatments were carried out for 15 days before the irradiation and prosecuted up to the end of the experiment. The control animals received the vehicle alone.
At the 15th day, all the animals were irradiated (Philip Metalix® apparatus, 180 KV, 15 mA, with Cu filter 0.5 mm +AI mm) with the administration of 700 r of x rays.
All the animals were checked daily, for 15 days after irradiation. The radio-protection degree was calculated as survival % at 10 and 15 days.

[4] = tested on: T-lymphocyte response to concanavaline A; test: Test of blastization with ConA (3H-thymidine incorporation) after in vivo treatment; set-up: species or system rat; conditions: for 3H-thymidine cpm/well: ConA 2.5 μg/ml; for 3H-thymidine increase %: versus untreated
Description: For this purpose, male adult rats (5-6 months old) were used as animal model with normal immuno-competent system, and old rats (17-18 months) as a paraphysiological immunodeficiency model.
The PGTCA treatment has been carried out i.p. at the dose of 1, 10 or 50 mg/kg twice a day for 4 weeks. The used immunological tests were the delayed-type hypersensitivity induced by dinitrochlorobenzene (DNCB) and the T-lymphocyte response to concanavaline A (ConA).
After 4 weeks of PGTCA treatment at the doses of 1,10 and 50 mg/kg, the animals were sacrificed and the spleen was removed in sterile conditions. The isolation of lymphocytes was obtained by an isolimph gradient. The lymphocytes were incubated in micro-walls, at the concentration of 1×10^6 cells/ml, in the presence of ConA (2.5 μg/ml), for 48 hours. The mitogen activity was evaluated by incorporation of ^3 H-thymidine for 16 hours.

[5] = tested on: Male Wistar rats; test: Paracetamol intoxication in the rat, test after single i.p. administration; type: in vivo; conditions: for Death rate % / % distribution of liver impairment degrees: degree 0 / % distribution of liver impairment degrees: degree 1 / % distribution of liver impairment degrees: degree 2 / % distribution of liver impairment degrees: degree 3: single administration; for Death rate %: 48 hours after paracetamol 5000 mg/kg oral; for % distribution of liver impairment degrees: degree 0: degree 0 = normal histologic examination; for % distribution of liver impairment degrees: degree 1: degree I = centrolobular necrosis less than 25% of the lobule; for % distribution of liver impairment degrees: degree 2: degree II = extended centrolobular necrosis; for % distribution of liver impairment degrees: degree 3: degree III = massive necrosis
Text: as §1
(a) Test after single i.p. administration
The animals were divided in 7 groups, comprising 20 animals each, according to the following scheme:
II group: PGTCA 4.1 μmoles/kg i.p.
III group: PGTCA 41 μmoles/kg i.p.
IV group: PGTCA 205 μmoles/kg i.p.
V group: PGA 4.1 μmoles/kg +TCA 4.1 μmoles/kg
VI group: PGA 41 μmoles/kg +TCA 41 μmoles/kg
VII group: PGA 205 umoles/kg +TCA 205 μmoles/kg.
The animals of each group, fasting since 12 hours, were treated with paracetamol at the dose of 5000 mg/kg by the oral route. The different pharmacological treatments were carried out contemporaneously with the paracetamol administration. After 48 hours from treatment, the death-rate was assessed in the various experimental groups. The liver was taken from the surviving animals, sacrificed by decapitation, and from the dead animals and an histopathologic examination was carried out.
The degree of liver impairment has been evaluated as: degree O: normal histologic examination degree I: centrolobular necrosis extended to less than 25% of the lobule degree II: extended centrolobular necrosis, with lesions bridging adjacent centrolobular areas degree III: massive necrosis.
as §2

[6] = tested on: T cells forming rosettes with sheep red blood cells; test: T-cells forming rosette with sheep red blood cells; type: in vivo, mouse; conditions: for No. rosette/10^6 spleen cells Var. %: versus controls
Description: In the mouse, a cytotoxic-kind of hypersensivity reaction, evaluated in the test of T cells forming rosettes with sheep red blood cells, was used (S.D. Wilson Immunology, 1971, 21, 233). […]
CD-I male mice weighing about 25 g are treated with PGTCA for 8 days. After 4 days from the start of the treatment the animals were immunized with 5×10^8 sheep red blood cells in 0.2 ml of PBS i.p. The rosette test was carried out 6 days after the immunization. The mice were killed and the spleen was removed and placed in ice cold Hank solution, triturated, homogenized and gauze filtered.
6×10^7 /ml of spleen cells +100 /μl of red blood cell suspension 3×10^8 /μul were mixed in 0.8 ml of Hank and stirred for 1 min.
The samples were incubated for 24 h at 4° C. without stirring and then, after stirring, the number of rosette forming cells/ml was determined by the Burker apparatus.

[7] = PGTCA 4.1 microm/kg ip from 15 days before irradiation
[8] = PGTCA 41 microm/kg ip from 15 days before irradiation
[9] = PGTCA 205 microm/kg ip from 15 days before irradiation
[10] = at the highest and at the intermediate dose
[11] = Mice not sensitized with red blood cells, 100 mg/kg b.i.d. i.p. for 8 days

Which results are given for `O=C1CC[C@@H](C(=O)N2CSC[C@H]2C(=O)O)N1` [PGTCA, 3-L-pyroglutamyl-Lthiazolidine-4-carboxylic acid] ([pGlu]-[Thz]-OH)?
improving the neurocerebral performances [1]: active; Death rate % ([2]; PGTCA 4.1 microm/kg ip): 85%; Death rate % ([2]; PGTCA 41 microm/kg ip): 70%; Death rate % ([2]; PGTCA 205 microm/kg ip): 50%; % distribution of liver impairment degrees: degree 0 ([2]; PGTCA 4.1 microm/kg ip): 0%; % distribution of liver impairment degrees: degree 1 ([2]; PGTCA 4.1 microm/kg ip): 0%; % distribution of liver impairment degrees: degree 2 ([2]; PGTCA 4.1 microm/kg ip): 10%; % distribution of liver impairment degrees: degree 3 ([2]; PGTCA 4.1 microm/kg ip): 90%; % distribution of liver impairment degrees: degree 0 ([2]; PGTCA 41 microm/kg ip): 0%; % distribution of liver impairment degrees: degree 1 ([2]; PGTCA 41 microm/kg ip): 0%; % distribution of liver impairment degrees: degree 2 ([2]; PGTCA 41 microm/kg ip): 35%; % distribution of liver impairment degrees: degree 3 ([2]; PGTCA 41 microm/kg ip): 65%; % distribution of liver impairment degrees: degree 0 ([2]; PGTCA 205 microm/kg ip): 5%; % distribution of liver impairment degrees: degree 1 ([2]; PGTCA 205 microm/kg ip): 15%; % distribution of liver impairment degrees: degree 2 ([2]; PGTCA 205 microm/kg ip): 25%; % distribution of liver impairment degrees: degree 3 ([2]; PGTCA 205 microm/kg ip): 55%; Death-rate % 10 gg [3, 7]: 20%; Death-rate % 10 gg [3, 8]: 15%; Death-rate % 10 gg [3, 9]: 10%; Death-rate % 15 gg [3, 7]: 45%; Death-rate % 15 gg [3, 8]: 20%; Death-rate % 15 gg [3, 9]: 15%; radioprotective activity [3, 10]: remarkable radioprotective activity; 3H-thymidine cpm/well ([4]; Adult rats (5-6 months), 1 mg/kg i.p. twice a day for 4 weeks): 31806 ± 970 cpm/well; 3H-thymidine increase % ([4]; Adult rats (5-6 months), 1 mg/kg): -2.1%; 3H-thymidine cpm/well ([4]; Adult rats (5-6 months), 10 mg/kg i.p. twice a day for 4 weeks): 34165 ± 540 cpm/well; 3H-thymidine increase % ([4]; Adult rats (5-6 months), 10 mg/kg): +5.1%; 3H-thymidine cpm/well ([4]; Adult rats (5-6 months), 50 mg/kg i.p. twice a day for 4 weeks): 35785 ± 240 cpm/well; 3H-thymidine increase % ([4]; Adult rats (5-6 months), 50 mg/kg): +10.1%; 3H-thymidine cpm/well ([4]; Old rats (17-18 months), 1 mg/kg i.p. twice a day for 4 weeks): 23553 ± 923 cpm/well; 3H-thymidine increase % ([4]; Old rats (17-18 months), 1 mg/kg): +1.6%; 3H-thymidine cpm/well ([4]; Old rats (17-18 months), 10 mg/kg i.p. twice a day for 4 weeks): 26012 ± 316 cpm/well; 3H-thymidine increase % ([4]; Old rats (17-18 months), 10 mg/kg): +12.3%; 3H-thymidine cpm/well ([4]; Old rats (17-18 months), 50 mg/kg i.p. twice a day for 4 weeks): 27540 ± 439 cpm/well; 3H-thymidine increase % ([4]; Old rats (17-18 months), 50 mg/kg): +18.9%; liver impairment by an high dose of paracetamol ([5]; acute treatment, 205 μmoles/kg i.p. and 41 μmoles/kg i.p.): significant decrease; death-rate by paracetamol [5, 10]: reduces the death-rate; Death rate % ([5]; PGTCA 4.1 microm/kg ip): 85%; % distribution of liver impairment degrees: degree 0 ([5]; PGTCA 4.1 microm/kg ip): 0%; % distribution of liver impairment degrees: degree 1 ([5]; PGTCA 4.1 microm/kg ip): 0%; % distribution of liver impairment degrees: degree 2 ([5]; PGTCA 4.1 microm/kg ip): 10%; % distribution of liver impairment degrees: degree 3 ([5]; PGTCA 4.1 microm/kg ip): 90%; Death rate % ([5]; PGTCA 41 microm/kg ip): 75%; % distribution of liver impairment degrees: degree 0 ([5]; PGTCA 41 microm/kg ip): 0%; % distribution of liver impairment degrees: degree 1 ([5]; PGTCA 41 microm/kg ip): 5%; % distribution of liver impairment degrees: degree 2 ([5]; PGTCA 41 microm/kg ip): 20%; % distribution of liver impairment degrees: degree 3 ([5]; PGTCA 41 microm/kg ip): 75%; Death rate % ([5]; PGTCA 205 microm/kg ip): 60%; % distribution of liver impairment degrees: degree 0 ([5]; PGTCA 205 microm/kg ip): 5%; % distribution of liver impairment degrees: degree 1 ([5]; PGTCA 205 microm/kg ip): 15%; % distribution of liver impairment degrees: degree 2 ([5]; PGTCA 205 microm/kg ip): 15%; % distribution of liver impairment degrees: degree 3 ([5]; PGTCA 205 microm/kg ip): 65%; No. rosette/10^6 spleen cells m ± E.S. [6, 11]: 790 ± 170 rosette/10^6 spleen cells; No. rosette/10^6 spleen cells Var. % [6, 11]: -12%; No. rosette/10^6 spleen cells Var. % ([6]; Mice sensitized with red blood cells, 100 mg/kg b.i.d. i.p. for 8 days): +41%; rosette number in comparison with the control ([6]; not sensitized animals): no significant change; rosette number in comparison with the control ([6]; sensitized animals): significant increase
